pIC50: −log10 of the molar value. Converted amounts (≈) assume the structure as drawn. Like-named read-outs stand apart in the source and are kept apart here.
Tests used:
[1] = tested on: Enterococcus faecalis ATCC 29212; test: Serial dilution microplate MIC; assay type: cell-based; conditions: for MIC: Enterococcus faecalis; for Selectivity index E. faecalis: in brackets, Vero LC50 vs MIC
Protocol: (§1) The MIC value of the plant extracts and isolated compounds against one fungal and five bacterial strains (Salmonella Typhimurium ATCC 39183, Escherichia coli ATCC 25922, Pseudomonas aeruginosa ATCC 27853, Staphylococcus aureus ATCC 29213, Enterococcus faecalis ATCC 29212, and fungi culture, Candida albicans ATCC 10231) was assessed in triplicate using the serial dilution microplate method; acetone and DMSO were used as solvents. Bacterial cultures were grown in Mueller Hinton broth (Sigma Aldrich, St. Louis, MO, USA) overnight and adjusted to McFarland standard 1 (1 × 10^8 CFU/mL). Then, 100 µL of samples were transferred into the first well of a sterile 96-well microtiter plate, which contained 100 µL of water and a 1:1 serial dilution with sterilized distilled water was carried out. In each well, 100 µL of appropriately adjusted fungal or bacterial cultures were added, and the bacteria were subjected to final concentrations of 250–3.9 μg/mL for pure compounds and 2.5–0.02 mg/mL for crude extracts. Amphotericin-B and Gentamicin (Virbac, Carros, France) served as positive controls for fungi and bacteria, respectively. For sterility, water served as control, while acetone served as a negative control. The microplates were then incubated for 24 h at 37 °C. Following incubation, 40 µL of 0.2 mg/mL p-iodonitrotetrazolium violet (INT, Sigma Aldrich) dissolved in water (hot) was added to the wells before being incubated at 37 °C for another 2 h. In the case of fungi, the INT was added before incubation. The MIC was measured visually as the lowest concentration of the compounds/extracts that inhibited proliferation.

[2] = tested on: Escherichia coli ATCC 25922; test: Serial dilution microplate MIC; assay type: cell-based; conditions: for MIC: Escherichia coli; for Selectivity index E. coli: in brackets, Vero LC50 vs MIC
Protocol: as §1

[3] = tested on: Pseudomonas aeruginosa ATCC 27853; test: Serial dilution microplate MIC; assay type: cell-based; conditions: for MIC: Pseudomonas aeruginosa; for Selectivity index P. aeruginosa: in brackets, Vero LC50 vs MIC
Protocol: as §1

[4] = tested on: Salmonella Typhimurium ATCC 39183; test: Serial dilution microplate MIC; assay type: cell-based; conditions: for MIC: Salmonella enterica, read-out: Minimum inhibitory concentration (MIC) S. Typhimurium; for Selectivity index S. Typhimurium: in brackets, Vero LC50 vs MIC
Protocol: as §1

[5] = tested on: Staphylococcus aureus ATCC 29213; test: Serial dilution microplate MIC; assay type: cell-based; conditions: for MIC: Staphylococcus aureus; for Selectivity index S. aureus: in brackets, Vero LC50 vs MIC
Protocol: as §1

[6] = tested on: Candida albicans ATCC 10231; test: Serial dilution microplate MIC (fungi); assay type: cell-based; conditions: for MIC: Candida albicans; for Selectivity index C. albicans: in brackets, Vero LC50 vs MIC
Protocol: as §1

in vitro = test: in vitro
Protocol: Cytotoxicity of compounds and extracts was tested against mammalian cells using the MTT assay. MCF-7 cancer cells were grown in a 5% CO2 incubator in Dulbecco’s Modified Eagle’s Medium (DMEM, Highveld Biological, Johannesburg, South Africa) supplemented with 10% fetal calf serum (Adcock-Ingram, Johannesburg, South Africa) and 1% penicillin-streptomycin (10,000 U/mL and 10 mg/mL streptomycin, Sigma Aldrich). In a 5% CO2 incubator, Vero cells were grown in a minimal essential medium (MEM, Highveld Biological, South Africa) supplemented with 5% fetal calf serum (Adcock-Ingram) and 0.1% gentamicin (Virbac). Cell suspensions were obtained from 70–80% confluent monolayer cultures and were plated in 96-well cell culture plates at a density of 1 × 10^4. Plates were incubated in a 5% CO2 incubator for 24 h at 37 °C. The cells were exposed to the extracts or compounds dissolved in the media at different concentrations for 48 h. Positive and negative controls were doxorubicin (Pfizer, New York, NYC, USA) and acetone or DMSO, respectively. After that, the wells were rinsed with phosphate-buffered saline (PBS, Sigma) and 200 µL of fresh medium was poured into the wells. Thirty microlitres (5 mg/mL) of MTT (Sigma) dissolved in PBS was added to each well, and the plates were incubated at 37 °C for 4 h. The medium from the wells was removed, rinsed, and 50 µL of 100% DMSO was added to the wells. At a wavelength of 570 nm, absorbance was measured using a microplate reader (BioTek Synergy, Beijing, China). Each sample concentration was tested in quadruplicate in two repeats (n = 8), and the concentration causing 50% inhibition of cell viability (LC50) was calculated. Selectivity index (SI) values for the extracts/compounds were obtained by dividing cytotoxicity LC50 values of normal (Vero) cells by those of the cancer cells.

[7] = tested on: Botrytis cinerea and Sclerotinia sclerotiorum; design: method as in PMID 37570772; conditions: cited from earlier work
[8] = tested on: Leishmania braziliensis amastigotes; design: method as in PMID 32664596; conditions: cited from earlier work
Plasmodium falciparum = tested on: Plasmodium falciparum; design: method as in PMID 32664596; conditions: cited from earlier work
HEK295 = tested on: HEK295; design: method as in PMID 27357542; conditions: cited from earlier work
MCF-7 tumor cells = tested on: MCF-7 tumor cells; design: method as in PMID 27357542; conditions: 1 µg/mL; cited from earlier work
Caco-2 tumor cells = tested on: Caco-2 tumor cells; design: method as in PMID 27357542; conditions: 5 μg/mL; cited from earlier work
COX-1 = tested on: COX-1; design: method as in doi:10.3329/bjp.v8i2.14167; conditions: cited from earlier work
COX-2 = tested on: COX-2; design: method as in doi:10.3329/bjp.v8i2.14167; conditions: cited from earlier work
[9] = tested on: intra-erythrocytic and gametocyte asexual P. falciparum parasites; design: method as in PMID 30849984; conditions: intra-erythrocytic and gametocyte stages; cited from earlier work
[10] = tested on: one fungal and five bacterial strains; test: Serial dilution microplate MIC, whole panel; assay type: cell-based; conditions: isolated compounds, highest concentration 250 µg/mL
Protocol: as §1

E. coli = tested on: E. coli; design: method as in PMID 23480526; conditions: cited from earlier work
P. aeruginosa = tested on: P. aeruginosa; design: method as in PMID 23480526; conditions: cited from earlier work
S. aureus = tested on: S. aureus; design: method as in PMID 23480526; conditions: cited from earlier work
L. monocytogenes = tested on: L. monocytogenes; design: method as in PMID 23480526; conditions: cited from earlier work
[11] = design: method as in PMID 22693528; conditions: cited from earlier work
[12] = ATCC10231, isolated compounds, Table 2, read-out: Minimum inhibitory concentration (MIC) C. albicans
[13] = ATCC29212, isolated compounds, Table 2, read-out: Minimum inhibitory concentration (MIC) E. faecalis
[14] = ATCC25922, isolated compounds, Table 2, read-out: Minimum inhibitory concentration (MIC) E. coli
[15] = ATCC27853, isolated compounds, Table 2, read-out: Minimum inhibitory concentration (MIC) P. aeruginosa
[16] = ATCC29213, isolated compounds, Table 2, read-out: Minimum inhibitory concentration (MIC) S. aureus

For `CCCCCCCCCCCCOC(=O)/C=C/c1ccc(O)cc1` [Dodecyl-p-coumarate, dodecyl-p-coumarate], the MIC ([1]; ATCC29212, read-out: Minimum inhibitory concentration (MIC) E. faecalis) was 62.5 µg/mL (≈ 188 µM), the “Selectivity index E. faecalis” value ([1]; Table 2) was greater than 3.2 and the MIC ([2]; ATCC25922, read-out: Minimum inhibitory concentration (MIC) E. coli) was greater than 250 µg/mL. The “Selectivity index E. coli” value ([2]; Table 2) was less than 0.8, the MIC ([3]; ATCC27853, read-out: Minimum inhibitory concentration (MIC) P. aeruginosa) was greater than 250 µg/mL and the “Selectivity index P. aeruginosa” value ([3]; Table 2) was less than 0.8. For the same compound, the MIC ([4]; isolated compounds, Table 2) was greater than 250 µg/mL, the “Selectivity index S. Typhimurium” value ([4]; Table 2) was less than 0.8 and the MIC ([5]; ATCC29213, read-out: Minimum inhibitory concentration (MIC) S. aureus) was greater than 250 µg/mL. For the same compound, the “Selectivity index S. aureus” value ([5]; Table 2) was less than 0.8, the MIC ([6]; ATCC10231, read-out: Minimum inhibitory concentration (MIC) C. albicans) was 250 µg/mL (≈ 752 µM) and the “Selectivity index C. albicans” value ([6]; Table 2) was greater than 0.8. For the same compound, the CC50 at 48 h (in vitro) was greater than 200 µg/mL, the “Mycelium growth of Botrytis cinerea and Sclerotinia sclerotiorum” value [7] was “inhibition of mycelium growth” and the “EC50 Leishmania braziliensis amastigotes” value [8] was 16.34 ± 0.49 µg/mL (≈ 49.1 µM). For the same compound, the “EC50 Plasmodium falciparum” value (Plasmodium falciparum) was 81.19 ± 8.54 µg/mL (≈ 244 µM), the “Toxic effect on HEK295” value (HEK295) was “minimal toxic effect” and the “Reduction of viability of MCF-7 tumor cells” value (MCF-7 tumor cells) was “at least 23%”. For the same compound, the “Reduction of viability of Caco-2 tumor cells” value (Caco-2 tumor cells) was no less than 15%.

With `C[C@@H]1[C@H](O)[C@@H](C)/C=C/C=C/C=C/C=C/C=C/C=C/C=C/[C@H](O[C@@H]2O[C@H](C)[C@@H](O)[C@H](N)[C@@H]2O)C[C@@H]2O[C@](O)(C[C@@H](O)C[C@@H](O)[C@H](O)CC[C@@H](O)C[C@@H](O)CC(=O)O[C@H]1C)C[C@H](O)[C@H]2C(=O)O` [Amphotericin-B, reference compound] the MIC ([6]; ATCC10231, crude extracts, Table 1, read-out: Minimum inhibitory concentration (MIC) C. albicans) was 20 µg/mL (≈ 21.6 µM) and the MIC [6, 12] was 3.9 µg/mL (≈ 4.22 µM).

For `CC(=O)O[C@H]1CC[C@]2(C)[C@H]3CC[C@]4(C)C(=CC[C@@]5(C)CCC(C)(C)C[C@H]54)[C@]3(C)CC[C@H]2C1(C)C` [3β-Taraxerol acetate, 3β-taraxerol acetate], the pIC50 (COX-1) is given as 3.93 and the pIC50 (COX-2) is given as 4.02.

In the case of `C=C1C(=O)O[C@H]2[C@H]1[C@@H](OC(C)=O)C[C@@](C)(O)[C@@]13O[C@@H]1[C@@H]1O[C@]1(C)[C@H]23` [Yomogiartemin], the pIC50 [9] is listed as roughly 5.00.

With `COc1cc(/C=C/C(=O)O)ccc1O` [Ferulic acid, ferulic acid] the MIC [1, 13] was greater than 250 µg/mL, the “Selectivity index E. faecalis” value ([1]; Table 2) was less than 0.8 and the MIC [2, 14] was greater than 250 µg/mL. For the same compound, the “Selectivity index E. coli” value ([2]; Table 2) was less than 0.8, the MIC [3, 15] was greater than 250 µg/mL and the “Selectivity index P. aeruginosa” value ([3]; Table 2) was less than 0.8. The MIC ([4]; isolated compounds, Table 2) was greater than 250 µg/mL, the “Selectivity index S. Typhimurium” value ([4]; Table 2) was less than 0.8 and the MIC [5, 16] was 250 µg/mL (≈ 1290 µM). For the same compound, the “Selectivity index S. aureus” value ([5]; Table 2) was greater than 0.8, the MIC [6, 12] was 250 µg/mL (≈ 1290 µM) and the “Selectivity index C. albicans” value ([6]; Table 2) was greater than 0.8. The CC50 at 48 h (in vitro) was greater than 200 µg/mL, the MIC ([10]; all tested strains, read-out: MIC against all tested microorganisms) was no less than 250 µg/mL and the “MIC against all tested microorganisms” value [10] was “no efficacy”. For the same compound, the “MIC E. coli” value (E. coli) was 100 µg/mL (≈ 515 µM), the “MIC P. aeruginosa” value (P. aeruginosa) was 100 µg/mL (≈ 515 µM) and the “MIC S. aureus” value (S. aureus) was 1100 µg/mL (≈ 5660 µM). For the same compound, the “MIC L. monocytogenes” value (L. monocytogenes) was 1250 µg/mL (≈ 6440 µM).

For `C=C1C(=O)O[C@H]2C1[C@@H](OC(C)=O)CC(=C)[C@]1(O)C=C[C@@](C)(O)[C@H]21` (stereo partly drawn) [1α, 4α-dihydroxybishopsolicepolide], the pIC50 [9] is given as roughly 5.00.

In the case of `O=C1O[C@H]([C@@H](O)CO)C(O)=C1O` [vitamin C, reference compound], the “IC50 DPPH radical” value [11] is given as 1.22 µg/mL (≈ 6.93 µM).

In the case of `CNC(C)C1CCC(N)C(OC2C(N)CC(N)C(OC3OCC(C)(O)C(NC)C3O)C2O)O1` (stereo not shown) [Gentamicin, reference compound], the MIC ([1]; ATCC29212, crude extracts, Table 1, read-out: Minimum inhibitory concentration (MIC) E. faecalis) was 20 µg/mL (≈ 41.9 µM), the MIC [1, 13] was 3.9 µg/mL (≈ 8.17 µM) and the MIC ([2]; ATCC25922, crude extracts, Table 1, read-out: Minimum inhibitory concentration (MIC) E. coli) was 20 µg/mL (≈ 41.9 µM). For the same compound, the MIC [2, 14] was 3.9 µg/mL (≈ 8.17 µM), the MIC ([3]; ATCC27853, crude extracts, Table 1, read-out: Minimum inhibitory concentration (MIC) P. aeruginosa) was 20 µg/mL (≈ 41.9 µM) and the MIC [3, 15] was 3.9 µg/mL (≈ 8.17 µM). The MIC ([4]; crude extracts, Table 1) was 20 µg/mL (≈ 41.9 µM), the MIC ([4]; isolated compounds, Table 2) was 3.9 µg/mL (≈ 8.17 µM) and the MIC ([5]; ATCC29213, crude extracts, Table 1, read-out: Minimum inhibitory concentration (MIC) S. aureus) was 20 µg/mL (≈ 41.9 µM). It also gave an MIC [5, 16] of 3.9 µg/mL (≈ 8.17 µM).

From paper PMC10574767, “Extractives from Artemisia afra with Anti-Bacterial and Anti-Fungal Properties” (Plants, 2023)
